“Also recorded” adds a separate entry of the source.
Experiments:
[1] = test system: H460 xenograft tumors; assay: H460 xenograft tumor growth after intratumoral injection; format: in vivo
Method: In order to test whether the proposed treatment approach for NSCLC using dsRNA-mediated activation of TAK1-D is feasible in vivo H460 xenograft tumors grown in athymic NCr nu/nu mice were treated with by intratumoral injection of a liposomal dsRNA preparation. About 10 days after subcutaneous injection of […] H460 cells into the left hind leg of the animals tumors had reached a volume of about 300 μl and were injected with 50 μl of liposomal control RNA or active RNA si5. Liposomes consisting of DOTAP and Cholesterol (1:1) were prepared by sonication and extrusion. RNA was bound to the polycation protamine and liposome/polycation/RNA nanoparticles were prepared by mixing the protamine RNA complex with the liposomes. Finally 4 μg of RNA were injected in a volume of 50 μl on day 0 and 1. […].

[2] = test system: normal human skin fibroblasts; assay: Crystal Violet staining of normal human skin fibroblasts; format: cell-based; conditions: up to 20 nM, 48 h
Method: In order to obtain preliminary data describing the response of normal tissue cells to dsRNA mediated Tak1-D activation normal human fibroblasts as well as human bronchial epithelial cells (HBEC) were plated into 12-well multiwell plates, treated with siRNA si5 or si6 in different concentrations and stained with Crystal Violet 48 h later. […] […].

[3] = test system: H460 cells; assay: BrdU pulse labeling and flow cytometry of H460 cells; format: cell-based, human
Method: FIGS. 10A-D: Reaction of NCI-H460 cells to activation of p38 MAPK and SAPK/JNK. (FIG. 10A) BrdU labeling was used to determine the amount of NCI-H460 cells in the S phase of the cell cycle. Cells were pulse labeled with 100 μM BrdU for 15 minutes (0 and 4 h) or 10 μM for 1 h (24 h). Dot blots show DNA content versus BrdU signal. The number of S phase cells decreases within a few hours after treatment of cells with siRNA si5. (FIG. 10B) Flow cytometry dot blots, showing the cellular DNA content versus the amount of cleaved Caspase 3. Within 24 h after exposure to siRNA si5 cells in G1 as well as in the S phase of the cell cycle show Caspase 3 activation. (FIG. 10C) Activation of Caspase 3 leads to PARP cleavage and to (FIG. 10D) nuclear chromatin condensation visible in Hoechst 33342 stained NCI-H460 cells, typical of apoptosis.
To test this hypothesis, H460 cells were pulse labeled with BrdU for 15 min at various time points after treatment with siRNA si5 and analyzed by flow cytometry immediately afterwards. […] In particular, it can be seen that the fraction of cells in the S phase of the cell cycle drops from 48% in untreated cells to 27% 4 h after incubating the cells with 20 nM siRNA si5.

[4] = test system: cdc25A; assay: cdc25A phosphorylation in nuclei of NCI-H460 cells; format: cell-based, human; conditions: 2 h
Source text: (§1) P38 MAPK as well as SPK/JNK have a large number of downstream targets. Amongst these, the phosphorylation of the cell cycle control phosphatase cdc25 (Bulavin et al., 2001; Goss et al., 2003) are of particular interest, as these phosphorylations have the potential to transduce an immediate and direct effect of TAK1-D activation to the cell cycle. […] In contrast, both cdc25A and cdc25B were found in the nucleus and therefore capable of cell cycle control. […] The occurrence of this shifted form of cdc25A is indicative of phosphorylation and inactivation of cdc25A (Zhao et al., 2002). The amount of cdc25B in the nucleus decreases with kinetics similar to the phosphorylation of cdc25A, indicative for a phosphorylation dependent translocation and proteolytic digestion of cdc25B (Cans et al., 1999). Therefore, it can be concluded that activation of TAK1-D in NCI-H460 cells leads to an inactivation of cdc25A and cdc25B through p38 MAPK and SAPK/JNK mediated phosphorylation and proteolytic destruction.

[5] = test system: H460 xenograft tumors; assay: Immunohistochemistry for cleaved Caspase-3 in H460 xenograft tumors; format: in vivo, mice; conditions: 16 hours after intratumoral injection
Method: To gain an insight into the mechanisms of dsRNA si5-induced growth delay in H460 xenograft tumors shown in FIG. 26, the tumors were analyzed by immunohistochemical staining for apoptotic activation of Caspase-3. Two tumors with a volume of about 500 μl were injected with a liposomal preparation of active and control dsRNA as described above. Sixteen hours after injection mice were sacrificed and the tumors were fixed in formaldehyde. After paraffin embedding 5 μm sections were cut from the central region of the tumor. The sections were stained immunohistochemically using a primary antibody against cleaved Caspase-3. The primary antibody was detected using a biotinylated secondary antibody and an peroxidase ABC-Kit (Vector Laboratories). Diaminobenzidine (DAB) was used as a substrate for immunohistochemical detection and the slides were counterstained with Hematoxylin.

[6] = test system: cdc25B; assay: Nuclear cdc25B level in NCI-H460 cells; format: cell-based, human
Source text: as §1

si5: 21-mer siRNA against TLK1 mRNA: GGCUUUUGACCUUUAUGAAtt (SEQ ID NO: 2) / ttCCGAAAACUGGAAAUACUU (SEQ ID NO: 3) (sense GGCUUUUGACCUUUAUGAATT; antisense TTCCGAAAACUGGAAAUACUU; chemistry not given here; one strand is listed 3' to 5')
normal tissue toxicity (necrosis of skin or tumor vascular system) ([1]; intratumoral liposomal preparation): no sign of normal tissue toxicity | tumor growth kinetics ([1]; intratumoral, liposome (DOTAP:Cholesterol)/protamine/RNA nanoparticles, 4 μg RNA day 0 and 1): tumor growth delay | growth inhibitory or cytotoxic effect [2]: no growth inhibitory or cytotoxic effect could be observed; also recorded: no cytotoxicity or growth delay | fraction of cells in the S phase of the cell cycle ([3]; H460, 4 h after 20 nM, untreated cells 48%): 27% | DNA synthesis ([3]; H460, 24 h after treatment): ceased almost completely | cell cycle arrest ([3]; NCI-H460, first 24 h): arrest of NCI-H460 cells in the G1, S, and G2 phase of the cell cycle | phosphorylation of nuclear cdc25A (intensity of the upper band) [4]: increases in intensity within 2 h; also recorded: increased phosphorylation as early as 2 h | apoptotic activation of Caspase-3 (DAB staining) [5]: visible in many cells | amount of cdc25B in the nucleus [6]: decreases

Source: US8163709B2, “TAK1-D mediated induction of cell death in human cancer cells by specific sequence short double-stranded RNAS” (Board of Regents of the University of Texas System, priority 2008, dated 2012)
